A short description of data set [1]: Stability investigation of the lyophilisate (visual inspection, reverse HPLC). The format is physicochemical. As to the method:
For that the lyophilisate was stored up to 24 months at 2 to 8° C. and up to 6 months at 25° C. at 60% relative humidity. Stability was investigated at different time points during that period. In particular the appearance, contents, as well as purity of the cyclic peptides were investigated. For that laboratory-common analytical processes were used, such as e.g. visual inspection and reverse HPLC.

Data set [2] is described as follows: Aerosol droplet size characterisation (laser diffraction / impactor). The format is physicochemical. From the text:
By means of a nebulizer which converts aqueous solution into an aerosol, also the aqueous solutions of the cyclic peptides of amino acid sequence SEQ ID NO:1 to SEQ ID NO:6 may be converted into aerosols. Such aerosols can be characterized with respect to the medium droplet size, as well as to size distribution of the aerosol droplets. For that conventional methods are used, which are described also in pharmacopoeias. The one analytical method uses the cascade impactor in its actual construction, the “Next Generation Impactor”. Thereby the aerosol is conducted through a series of sieve plates, whereby the diameter of the holes is diminished with each plate and the amount of the holes is increased. In the other analytical method, the laser-diffraction measurement, the droplet sizes are determined by means of laser. The 2 important parameters which are determined during these measurements, one the one hand is the median of the diameter of all droplets, and on the other hand, the amount of droplets having a diameter of ≤5 μm. In the literature that diameter is described as a limit, under which inhaled aerosol particles arrive in fact in the lung.
It is ramblingly known, that in practice from a generated aerosol only a part is available for the patient. Thus, for determining the amount of aerosol which is available for a user, trials with a breathing simulator were carried out. For investigating the particle size and for the implementation of the breathing simulation an aerosol from an aqueous solution of the cyclic peptide of amino acid sequence SEQ ID NO:1 was used. For generating aerosol different nebulizer types were used. The nebulizers A and B were so called “Mesh-Type nebulizers”.

As for `C[C@@H]1NC(=O)CNC(=O)[C@H](CCC(=O)O)NC(=O)[C@@H]2CCCN2C(=O)[C@H]([C@@H](C)O)NC(=O)[C@H](CCC(=O)O)NC(=O)[C@H](CCCNC(=N)N)NC(=O)[C@H](CCC(N)=O)NC(=O)CNC(=O)[C@@H](N)CSSC[C@@H](C(=O)O)NC(=O)[C@H](Cc2ccc(O)cc2)NC(=O)[C@H](Cc2c[nH]c3ccccc23)NC(=O)[C@@H]2CCCN2C(=O)[C@H](CCCCN)NC(=O)[C@H](C)NC(=O)[C@H](CCC(=O)O)NC1=O` [SEQ ID NO: 1], the Amount/Contents of lyophilisate is 100% in data set [1] (storage 2-8° C., T = 0); 99% in data set [1] (storage 2-8° C., T = 24 M); 100% in data set [1] (storage 25° C./60% rH, T = 0); 99% in data set [1] (storage 25° C./60% rH, T = 6 M). Also, the “Purity of lyophilisate (stability study)” value in data set [1] (storage 2-8° C., T = 0) came to 96%; in data set [1] (storage 2-8° C., T = 24 M) it was 96%; in data set [1] (storage 25° C./60% rH, T = 0), 96%; in data set [1] (storage 25° C./60% rH, T = 6 M), 95%. Also, the Appearence of lyophilisate result is recorded as “white powder” in data set [1] (storage 2-8° C., T = 0 to T = 24 M) and “white powder” in data set [1] (storage 25° C./60% rH, T = 0 to T = 6 M). Moreover, the “amount of droplets with a diameter of ≤5 μm in the aerosol” value in data set [2] (all nebulizers) was “at least 50%”. Also, the “Amount of particles with Ø ≤5 μm” value amounted to 50% in data set [2] (nebulizer Type A), 70% in data set [2] (nebulizer Type B) and 65% in data set [2] (nebulizer Type C). Also, the figures for the “Median particle diameter of aerosol” value in data set [2] (nebulizer Type A), in data set [2] (nebulizer Type B) and in data set [2] (nebulizer Type C) were 4.7 μm, 3.3 μm and 3.7 μm, respectively.

The record behind these values is US10711041B2, “Lyophilisate containing a cyclic peptide of formula X1-[sequence]-X2” (priority 2013, dated 2020).
